Assay results taken from patent US11565996B2, “Compounds for use as inhibitors of alternative oxidase or cytochrome bc1 complex” (AlternOx Scientific Limited, priority 2012, dated 2023).
Where “and” joins values, the source holds several entries; their conditions need not be identical. Equal values may be shown once. Read-outs that look alike come from different tables or passages of the source.

Legend:
[1] = biological target: cytochrome bc1 complex (Solanum tuberosum (Potato), UniProt P29757); assay: Respiratory activity of potato mitochondria lacking AOX (cytochrome bc1 complex), oxygen electrode; assay type: biochemical; details: 0.3 mg potato mitochondria respiring on 1 mM NADH, 25° C., 1 μM CCCP
Method: (§1) Following on from this work, the inventors set out to test whether or not these compounds also have any effect on the respiratory activity of cytochrome bc1 complex.
(§2) Respiratory activity was measured in a medium containing 0.3M mannitol, 10 mM KCl, 5 mM MgCl2, 1 mM potassium phosphate and 10 mM MOPS (3-(N-morpholino)propanesulfonic acid) buffer pH7.4. Either 0.9 mg of rat liver mitochondria respiring on 5 mM succinate or 0.3 mg potato mitochondria respiring on 1 mM NADH were used. Respiration was measured using a Rank oxygen electrode of 0.4 ml volume at 25° C. in the presence of 1 μM CCCP (Carbonyl cyanide […]). The results were compared with ascochlorin (a known bc1 inhibitor) and azoxystrobin (a commercial fungicide targeted at the bc1 complex).
(§3) Tables 3 and 4 summarise the concentration of inhibitor that was required to reduce the respiration of cytochrome bc1 complex (in the absence of AOX) by 50%. […] The lower the IC50 value the better, since it means that a lower amount of the compound is needed to halve the respiratory activity.

[2] = biological target: cytochrome bc1 complex (Rattus norvegicus (Rat), UniProt P00159); assay: Respiratory activity of rat liver mitochondria lacking AOX (cytochrome bc1 complex), oxygen electrode; assay type: biochemical; details: 0.9 mg rat liver mitochondria respiring on 5 mM succinate; 25° C.; 1 μM CCCP
Method: as §1, §2, §3

[3] = test system: Qo and Qi binding-sites of cytochrome bc1 complex; assay: Titration using mitochondria in which the alternative oxidase is absent: bc1 binding sites inhibited; assay type: biochemical; details: mitochondria without AOX
Excerpt: as §1

[4] = test system: other quinol oxidases; assay: Specificity versus other quinol oxidases; assay type: biochemical; details: specific for membrane-bound and purified AOX
[5] = biological target: recombinant AOX protein (Trypanosoma brucei brucei, UniProt Q26710); assay: biochemical; details: purified recombinant AOX protein; oxygen consumption; 1 mM NADH as substrate
Method: Table 1 summarises the concentration of inhibitor required to reduce the respiration of purified recombinant AOX protein by 50%. Respiration was measured as the rate of oxygen consumption in the presence of 1 mM NADH as substrate and the numbers represent the final I50 concentration of the inhibitor.

[6] = read-out: IC50 (Potato mitochondria)

Q: CO/C=C(/C(=O)OC)c1ccccc1Oc1cc(Oc2ccccc2C#N)ncn1 [Azoxystrobin, azoxystrobin] was tested. Which IC50 [1, 6] did it give?
A: ~1400 nM and 1400 nM

Q: What about the IC50 [2] of the same compound?
A: ~525 nM and 525 nM

Q: CC(/C=C/[C@@]1(C)[C@H](C)CCC(=O)[C@@H]1C)=C\Cc1c(O)c(Cl)c(C)c(C=O)c1O [Ascochlorin, ascochlorin] was tested. Which IC50 ([1]; IC50 (Potato mitochondria)) did it give?
A: 500 nM

Q: And the IC50 [2]?
A: 187 nM

Q: What does the source list for CC(C)=CCC/C(C)=C/Cc1c(O)c(Cl)c(C)c(C=O)c1O [Colletochlorin B]?
A: cytochrome bc1 complex binding sites inhibited [3]: both the Qo and Qi binding-sites; inhibition of other quinol oxidases [4]: did not appear to inhibit other quinol oxidases; IC50 [1, 6]: 750 nM

Q: C/C(=C\Cc1c(O)c(Cl)c(C)c(C=O)c1O)CC/C=C(\C)[C@@H]1CC(=O)C(C)(C)O1 [Ascofuranone] was tested. Which IC50 ([1]; IC50 (Potato mitochondria)) did it give?
A: ~30000 nM and 30000 nM

Q: For CCCCCCCCOC(=O)c1cc(O)c(O)c(O)c1 [Octyl Gallate], which IC50 [5] is on record?
A: 105 nM
